Results from patent US8673870B2 (priority 2002, dated 2014).
Where “and” joins values, the source holds several entries; their conditions need not be identical. Identical values can stand only once.

Assays:
fragment C = settings: in vivo
APL cells = tested on: APL cells; parameters: species or system mice; settings: mouse, in vivo
[1] = tested on: Recombinant human RARα protein (rhRARα); parameters: species or system mice; settings: in vivo
[2] = tested on: spleen cells stimulated with irradiated APL cells; experiment: Cytokine release assay (Th1/Th2 cytometric bead array); type: cell-based, mice
Description: Long term survivors (post day 300 illustrated in FIG. 2B) were sacrificed and tested for proliferation and cytokine release. Briefly, 5×10^5 responders (spleen cells from FVB/N injected with APL cells and treated with ATRA+PML-RARα-FrC or ScFvBCL1-FrC) were plated in each well with 200 μl of media consisting of RPMI 1640, 10% FCS and 0.5% […]. Spleen cells from healthy mice treated with ATRA. Stimulators (spleen cells from FVB/N, APL or BALB/c) were irradiated with 25 Gy and 1×10^6 cells were added to each well. After 24, 48 and 72 hours of incubation cells were assayed for ^3H-thymidine incorporation and supernatants were harvested for cytokine release assays. Cultures were set up in duplicate.
Cytokine release was measured using a mouse Th1/Th2 cytokine cytometric bead array kit according to the manufacturer's protocols (Becton, Dickinson, Pharmingen, San Jose, Calif.). This kit measures cytokines IL-2, IL-4, IL-5, IFN-γ and TNF-α. Long-term survivors of the mice from the protocol illustrated in FIG. 8, were sacrificed and spleen cells were cultured as described above. Briefly, 50 μl of supernatant was incubated with 50 μl of the mixed capture beads and 50 μl of the mouse Th1/Th2 PE detection reagent for 2 hours and analyzed on a FACSCalibur cytometer. Analysis was undertaken using the BD CBA (Becton Dickinson, Pharmingen) and Cell Quest software.

Compound | Antibody response to fragment C (mice responding/mice tested) (fragment C) | Survival versus comparison arms (Kaplan Meier), in words (APL cells) | Survival: No. mice/total (APL cells) | Time to relapse and death post transplant (APL cells; sc) | Antibodies against RARα detected by ELISA, in words [1] | RARα Ab positive (%) [1] | RARα Ab positive: mice with detectable antibodies/mice alive [1] | IFN-γ release ([2]; 48 hours of culture, irradiated APL cells as stimulators, ATRA alone = spleen cells from healthy mice) | Lifespan, in words (APL cells) | TNFα ([2]; with ATRA, approximately one year from injection of APL cells)
CC1=C(/C=C/C(C)=C/C=C/C(C)=C/C(=O)O)C(C)(C)CCC1 [ATRA, all-trans retinoic acid] | no antibodies to fragment C was detected | all of the mice relapse and die | 24/24 (100%) and 5/24 (21%) and 0/24 (0%) | 6-12 weeks | Significant levels of antibodies against RARα were detected | 7/12 (58%) and 4/5 (80%) | 0/12 and 7/12 (58%) and 4/5 (80%) | 52 pg/mL | – | –
ScFvBCL1-FrC: ScFv construct of King et al 1998 from a lymphoma patient fused in frame to BCL1 leader and fragment C (SEQ ID NO:11) | – | – | – | – | – | – | – | – | extended lifespan | increases in TNFα
